The target in this experiment is human LRRK2 kinase (Homo sapiens, UniProt Q5S007). The following applies: ATP 10 μM, 60 minutes at 25° C.

IC50 data for 31 molecules are collected here from patent US12479847B2 (DANA-FARBER CANCER INSTITUTE, INC., priority 2019, dated 2025).

Read-outs that look alike come from different tables or passages of the source.

Sequence of human LRRK2 kinase (Q5S007 whole entry): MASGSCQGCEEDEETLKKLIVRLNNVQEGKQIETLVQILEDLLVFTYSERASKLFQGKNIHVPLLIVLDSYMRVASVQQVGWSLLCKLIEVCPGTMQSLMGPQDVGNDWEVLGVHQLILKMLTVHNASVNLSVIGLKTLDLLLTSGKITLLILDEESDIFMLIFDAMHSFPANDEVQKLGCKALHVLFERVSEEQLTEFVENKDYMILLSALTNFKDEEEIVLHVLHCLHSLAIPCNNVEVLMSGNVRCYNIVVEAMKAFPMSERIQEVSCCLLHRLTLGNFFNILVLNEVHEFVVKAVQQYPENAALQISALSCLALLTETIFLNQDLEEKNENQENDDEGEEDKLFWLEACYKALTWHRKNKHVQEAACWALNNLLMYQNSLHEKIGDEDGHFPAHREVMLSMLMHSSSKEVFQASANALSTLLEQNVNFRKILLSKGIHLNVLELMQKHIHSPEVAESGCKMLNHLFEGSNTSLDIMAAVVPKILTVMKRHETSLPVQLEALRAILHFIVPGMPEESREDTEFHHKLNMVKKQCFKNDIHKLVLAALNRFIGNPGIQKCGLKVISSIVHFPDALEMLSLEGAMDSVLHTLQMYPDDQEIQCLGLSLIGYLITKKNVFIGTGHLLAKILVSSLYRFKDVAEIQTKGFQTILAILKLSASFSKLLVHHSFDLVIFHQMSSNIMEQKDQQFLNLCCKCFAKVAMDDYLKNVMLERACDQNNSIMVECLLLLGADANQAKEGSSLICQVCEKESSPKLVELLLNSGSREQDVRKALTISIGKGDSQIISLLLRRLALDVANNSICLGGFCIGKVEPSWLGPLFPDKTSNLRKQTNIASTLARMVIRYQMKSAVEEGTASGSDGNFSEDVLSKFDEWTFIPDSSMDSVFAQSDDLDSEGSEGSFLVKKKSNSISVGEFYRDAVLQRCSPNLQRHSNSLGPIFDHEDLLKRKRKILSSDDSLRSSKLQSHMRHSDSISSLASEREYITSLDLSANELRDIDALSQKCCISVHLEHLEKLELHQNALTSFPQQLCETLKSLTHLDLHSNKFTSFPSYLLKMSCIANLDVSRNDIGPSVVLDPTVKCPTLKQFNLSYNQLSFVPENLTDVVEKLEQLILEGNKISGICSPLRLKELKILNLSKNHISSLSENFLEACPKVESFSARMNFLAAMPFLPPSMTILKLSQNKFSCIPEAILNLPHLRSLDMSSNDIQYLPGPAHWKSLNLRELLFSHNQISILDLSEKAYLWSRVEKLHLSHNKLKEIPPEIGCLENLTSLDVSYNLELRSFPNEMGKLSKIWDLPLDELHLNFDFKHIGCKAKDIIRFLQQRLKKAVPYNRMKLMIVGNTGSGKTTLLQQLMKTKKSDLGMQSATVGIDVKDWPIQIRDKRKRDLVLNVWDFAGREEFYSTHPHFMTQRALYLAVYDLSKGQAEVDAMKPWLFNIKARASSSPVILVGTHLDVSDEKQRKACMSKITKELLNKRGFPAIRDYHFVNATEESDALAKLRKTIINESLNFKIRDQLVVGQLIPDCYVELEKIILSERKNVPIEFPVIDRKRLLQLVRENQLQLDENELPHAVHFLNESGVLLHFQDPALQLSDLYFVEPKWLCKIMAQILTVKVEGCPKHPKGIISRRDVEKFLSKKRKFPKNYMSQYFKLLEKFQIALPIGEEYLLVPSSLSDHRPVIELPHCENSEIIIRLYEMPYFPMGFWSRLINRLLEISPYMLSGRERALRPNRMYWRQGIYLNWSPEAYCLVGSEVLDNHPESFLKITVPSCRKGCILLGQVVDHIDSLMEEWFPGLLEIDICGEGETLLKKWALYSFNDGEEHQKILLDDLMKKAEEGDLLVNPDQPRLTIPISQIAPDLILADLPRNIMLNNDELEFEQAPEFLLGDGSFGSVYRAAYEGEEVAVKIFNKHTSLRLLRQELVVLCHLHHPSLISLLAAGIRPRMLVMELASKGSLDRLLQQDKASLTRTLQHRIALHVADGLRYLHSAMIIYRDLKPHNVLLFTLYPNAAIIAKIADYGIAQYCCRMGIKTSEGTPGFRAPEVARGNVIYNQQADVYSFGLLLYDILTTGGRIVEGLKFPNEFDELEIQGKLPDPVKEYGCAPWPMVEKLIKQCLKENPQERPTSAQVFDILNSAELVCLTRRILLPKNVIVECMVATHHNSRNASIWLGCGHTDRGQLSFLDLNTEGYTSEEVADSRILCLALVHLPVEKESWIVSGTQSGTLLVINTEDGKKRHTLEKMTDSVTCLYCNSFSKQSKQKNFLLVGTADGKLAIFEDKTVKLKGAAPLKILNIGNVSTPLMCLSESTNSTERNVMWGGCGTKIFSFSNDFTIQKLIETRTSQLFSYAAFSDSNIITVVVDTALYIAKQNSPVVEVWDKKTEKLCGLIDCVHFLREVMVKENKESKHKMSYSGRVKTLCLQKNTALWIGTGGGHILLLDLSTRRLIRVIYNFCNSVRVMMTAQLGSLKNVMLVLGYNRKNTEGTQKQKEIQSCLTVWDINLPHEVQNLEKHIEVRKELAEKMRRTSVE

Regarding `CNc1nc(Nc2ccc(S(=O)(=O)N3CCOCC3)cc2OC)nc2[nH]cc(Cl)c12` [Compound 11, 5-chloro-N2-(2-methoxy-4-(morpholinosulfonyl)phenyl)-N4-methyl-7H-pyrrolo[2,3-d]pyrimidine-2,4-diamine], the IC50 (LRRK2, ADP-Glo) was less than 0.01 µM.

Turning to `O=C(c1ccc(Nc2nc(NCC3CC3)c3c(Cl)c[nH]c3n2)c2c1OCCO2)N1CCOCC1` [Compound 65, (8-((5-chloro-4-((cyclopropylmethyl)amino)-7H-pyrrolo[2,3-d]pyrimidin-2-yl)amino)-2,3-dihydrobenzo[b][1,4]dioxin-5-yl)(morpholino)methanone], the IC50 (LRRK2, ADP-Glo) was less than 0.01 µM.

Where the note is “LRRK2, ADP-Glo”, `CCNc1nc(Nc2ccc(S(=O)(=O)N3CCOCC3)cc2OC)nc2[nH]cc(Cl)c12` [Compound 6, 5-chloro-N4-ethyl-N2-(2-methoxy-4-(morpholinosulfonyl)phenyl)-7H-pyrrolo[2,3-d]pyrimidine-2,4-diamine] showed an IC50 of more than 1 µM.

In turn, `CCCNc1nc(Nc2ccc(S(C)(=O)=O)cc2OC)nc2[nH]cc(Cl)c12` [Compound 8, 5-chloro-N2-(2-methoxy-4-(methylsulfonyl)phenyl)-N4-propyl-7H-pyrrolo[2,3-d]pyrimidine-2,4-diamine] gave an IC50 (LRRK2, ADP-Glo) of 0.01 to 0.1 µM.

As for `CCNc1nc(Nc2ccc(S(C)(=O)=O)cc2OC)nc2[nH]cc(Cl)c12` [Compound 16, 5-chloro-N4-ethyl-N2-(2-methoxy-4-(methylsulfonyl)phenyl)-7H-pyrrolo[2,3-d]pyrimidine-2,4-diamine], the IC50 (LRRK2, ADP-Glo) lay within 0.01 to 0.1 µM.

In turn, `CCNc1nc(Nc2ccc(C(=O)N3CCC(N4CCOCC4)CC3)c3c2OCC3)nc2[nH]cc(Cl)c12` [Compound 105, (7-((5-chloro-4-(ethylamino)-7H-pyrrolo[2,3-d]pyrimidin-2-yl)amino)-2,3-dihydrobenzofuran-4-yl)(4-morpholinopiperidin-1-yl)methanone] came in with an IC50 (LRRK2, ADP-Glo) of less than 0.01 µM.

In turn, `COCCNc1nc(Nc2ccc(S(C)(=O)=O)cc2OC)nc2[nH]cc(Cl)c12` [Compound 23, 5-chloro-N2-(2-methoxy-4-(methylsulfonyl)phenyl)-N4-(2-methoxyethyl)-7H-pyrrolo[2,3-d]pyrimidine-2,4-diamine] yielded an IC50 (LRRK2, ADP-Glo) of less than 0.01 µM.

As to `CNc1nc(Nc2ccc(C(=O)N3CCC(N4CCOCC4)CC3)c3c2OCCO3)nc2[nH]cc(Cl)c12` [Compound 10, (8-((5-chloro-4-(methylamino)-7H-pyrrolo[2,3-d]pyrimidin-2-yl)amino)-2,3-dihydrobenzo[b][1,4]dioxin-5-yl)(4-morpholinopiperidin-1-yl)methanone], the IC50 (LRRK2, ADP-Glo) is less than 0.01 µM.

`O=C(c1ccc(Nc2nc(NC3CCCCC3)c3c(Cl)c[nH]c3n2)c2c1CCO2)N1CCC(N2CCOCC2)CC1` [Compound 80, (7-((5-chloro-4-(cyclohexylamino)-7H-pyrrolo[2,3-d]pyrimidin-2-yl)amino)-2,3-dihydrobenzofuran-4-yl)(4-morpholinopiperidin-1-yl)methanone] had an IC50 (LRRK2, ADP-Glo) of 0.1 to 1 µM.

Under “LRRK2, ADP-Glo”, `CCNc1nc(Nc2ccc(C(=O)N3CCOCC3)c3c2OCCO3)nc2[nH]cc(Cl)c12` [Compound 17, (8-((5-chloro-4-(ethylamino)-7H-pyrrolo[2,3-d]pyrimidin-2-yl)amino)-2,3-dihydrobenzo[b][1,4]dioxin-5-yl)(morpholino)methanone] came in with an IC50 of less than 0.01 µM.

On to `COc1cc(S(=O)(=O)N2CCOCC2)ccc1Nc1nc(NC2CCC2)c2c(Cl)c[nH]c2n1` [Compound 7, 5-chloro-N4-cyclobutyl-N2-(2-methoxy-4-(morpholinosulfonyl)phenyl)-7H-pyrrolo[2,3-d]pyrimidine-2,4-diamine], for which, under “LRRK2, ADP-Glo”, the IC50 was 0.1 to 1 µM.

On to `COc1cc(S(=O)(=O)N2CCC(N3CCOCC3)CC2)ccc1Nc1nc(NCCS(C)(=O)=O)c2c(Cl)c[nH]c2n1` [Compound 69, 5-chloro-N2-(2-methoxy-4-((4-morpholinopiperidin-1-yl)sulfonyl)phenyl)-N4-(2-(methylsulfonyl)ethyl)-7H-pyrrolo[2,3-d]pyrimidine-2,4-diamine], for which the IC50 (LRRK2, ADP-Glo) is less than 0.01 µM.

In turn, `COc1cc(S(=O)(=O)N2CCC(N3CCOCC3)CC2)ccc1Nc1nc(NC(C)C)c2c(Cl)c[nH]c2n1` [Compound 87, 5-chloro-N4-isopropyl-N2-(2-methoxy-4-((4-morpholinopiperidin-1-yl)sulfonyl)phenyl)-7H-pyrrolo[2,3-d]pyrimidine-2,4-diamine] returned an IC50 (LRRK2, ADP-Glo) of 0.1 to 1 µM.

Consider `O=C(c1ccc(Nc2nc(NC3CC3)c3c(Cl)c[nH]c3n2)c2c1OCCO2)N1CCC(N2CCOCC2)CC1` [Compound 3, (8-((5-chloro-4-(cyclopropylamino)-7H-pyrrolo[2,3-d]pyrimidin-2-yl)amino)-2,3-dihydrobenzo[b][1,4]dioxin-5-yl)(4-morpholinopiperidin-1-yl)methanone], for which the IC50 (LRRK2, ADP-Glo) is less than 0.01 µM.

As to `COc1cc(S(=O)(=O)N2CCOCC2)ccc1Nc1nc(NCC(C)C)c2c(Cl)c[nH]c2n1` [Compound 31, 5-chloro-N4-isobutyl-N2-(2-methoxy-4-(morpholinosulfonyl)phenyl)-7H-pyrrolo[2,3-d]pyrimidine-2,4-diamine], the IC50 (LRRK2, ADP-Glo) was 0.1 to 1 µM.

`O=C(c1ccc(Nc2nc(NCC3CCCC3)c3c(Cl)c[nH]c3n2)c2c1OCCO2)N1CCOCC1` [Compound 46, (8-((5-chloro-4-((cyclopentylmethyl)amino)-7H-pyrrolo[2,3-d]pyrimidin-2-yl)amino)-2,3-dihydrobenzo[b][1,4]dioxin-5-yl)(morpholino)methanone] registered an IC50 (LRRK2, ADP-Glo) of 0.1 to 1 µM.

The molecule `O=C(c1ccc(Nc2nc(N[C@H]3CCOC3)c3c(Cl)c[nH]c3n2)c2c1OCCO2)N1CCOCC1` [Compound 95] displayed an IC50 (LRRK2, ADP-Glo) of less than 0.01 µM.

`CCNc1nc(Nc2ccc(P3(=O)CCN(C4CC4)CC3)cc2OC)nc2[nH]cc(Cl)c12` [Compound 84, 4-(4-((5-chloro-4-(ethylamino)-7H-pyrrolo[2,3-d]pyrimidin-2-yl)amino)-3-methoxyphenyl)-1-cyclopropyl-1,4-azaphosphinane 4-oxide]: the IC50 (LRRK2, ADP-Glo) was 0.01 to 0.1 µM.

Take `COc1cc(P2(=O)CCN(C3CC3)CC2)ccc1Nc1nc(NC2CCCCC2)c2c(Cl)c[nH]c2n1` [Compound 93, 4-(4-((5-chloro-4-(cyclohexylamino)-7H-pyrrolo[2,3-d]pyrimidin-2-yl)amino)-3-methoxyphenyl)-1-cyclopropyl-1,4-azaphosphinane 4-oxide]: for the setting “LRRK2, ADP-Glo”, the IC50 was in the range of 0.1 to 1 µM.

For `CCC(C)Nc1nc(Nc2ccc(S(=O)(=O)N3CCOCC3)cc2OC)nc2[nH]cc(Cl)c12` (stereo in doubt) [Compound 51, (S)—N4-(sec-butyl)-5-chloro-N2-(2-methoxy-4-(morpholinosulfonyl)phenyl)-7H-pyrrolo[2,3-d]pyrimidine-2,4-diamine], the IC50 (read-out: LRRK2, ADP-Glo) was 0.1 to 1 µM.

In turn, `COCCNc1nc(Nc2ccc(S(=O)(=O)N3CCC(N4CCOCC4)CC3)cc2OC)nc2[nH]cc(Cl)c12` [Compound 22, 5-chloro-N2-(2-methoxy-4-((4-morpholinopiperidin-1-yl)sulfonyl)phenyl)-N4-(2-methoxyethyl)-7H-pyrrolo[2,3-d]pyrimidine-2,4-diamine] displayed an IC50 (LRRK2, ADP-Glo) of less than 0.01 µM.

`COc1cc(S(=O)(=O)N2CCOCC2)ccc1Nc1nc(NC2CCCC2)c2c(Cl)c[nH]c2n1` [Compound 55, 5-chloro-N4-cyclopentyl-N2-(2-methoxy-4-(morpholinosulfonyl)phenyl)-7H-pyrrolo[2,3-d]pyrimidine-2,4-diamine] gave an IC50 (LRRK2, ADP-Glo) of 0.1 to 1 µM.

The molecule `COCCNc1nc(Nc2ccc(C(=O)N3CCC(N4CCOCC4)CC3)c3c2OCCO3)nc2[nH]cc(Cl)c12` [Compound 5, (8-((5-chloro-4-((2-methoxyethyl)amino)-7H-pyrrolo[2,3-d]pyrimidin-2-yl)amino)-2,3-dihydrobenzo[b][1,4]dioxin-5-yl)(4-morpholinopiperidin-1-yl)methanone] yielded an IC50 (LRRK2, ADP-Glo) of less than 0.01 µM.

In the case of `CCCNc1nc(Nc2ccc(S(=O)(=O)N3CCOCC3)cc2OC)nc2[nH]cc(Cl)c12` [Compound 18, 5-chloro-N2-(2-methoxy-4-(morpholinosulfonyl)phenyl)-N4-propyl-7H-pyrrolo[2,3-d]pyrimidine-2,4-diamine], the IC50 (LRRK2, ADP-Glo) lay within 0.1 to 1 µM.

Regarding `O=C(c1ccc(Nc2nc(NC3CCCCC3)c3c(Cl)c[nH]c3n2)c2c1CCO2)N1CCOCC1` [Compound 83, (7-((5-chloro-4-(cyclohexylamino)-7H-pyrrolo[2,3-d]pyrimidin-2-yl)amino)-2,3-dihydrobenzofuran-4-yl)(morpholino)methanone], for the setting “LRRK2, ADP-Glo”, the IC50 lay in the range of 0.1 to 1 µM.

Molecule `CCCCNc1nc(Nc2ccc(S(=O)(=O)N3CCC(N4CCOCC4)CC3)cc2OC)nc2[nH]cc(Cl)c12` [Compound 72, N4-butyl-5-chloro-N2-(2-methoxy-4-((4-morpholinopiperidin-1-yl)sulfonyl)phenyl)-7H-pyrrolo[2,3-d]pyrimidine-2,4-diamine] returned an IC50 (LRRK2, ADP-Glo) of 0.01 to 0.1 µM.

`CCCCNc1nc(Nc2ccc(S(C)(=O)=O)cc2OC)nc2[nH]cc(Cl)c12` [Compound 73, N4-butyl-5-chloro-N2-(2-methoxy-4-(methylsulfonyl)phenyl)-7H-pyrrolo[2,3-d]pyrimidine-2,4-diamine] returned an IC50 (LRRK2, ADP-Glo) of 0.01 to 0.1 µM.

In the case of `COc1cc(P2(=O)CCN(C(C)=O)CC2)ccc1Nc1nc(NC2CCC2)c2c(Cl)c[nH]c2n1` [Compound 92], under “LRRK2, ADP-Glo”, the IC50 fell in the range of 0.01 to 0.1 µM.

For the setting “LRRK2, ADP-Glo”, `COc1cc(S(C)(=O)=O)ccc1Nc1nc(NC2CC2)c2c(Cl)c[nH]c2n1` [Compound 26, 5-chloro-N4-cyclopropyl-N2-(2-methoxy-4-(methylsulfonyl)phenyl)-7H-pyrrolo[2,3-d]pyrimidine-2,4-diamine] had an IC50 of less than 0.01 µM.

Under “LRRK2, ADP-Glo”, `COc1cc(S(=O)(=O)N2CCOCC2)ccc1Nc1nc(NC2CCOCC2)c2c(Cl)c[nH]c2n1` [Compound 62, 5-chloro-N2-(2-methoxy-4-(morpholinosulfonyl)phenyl)-N4-(tetrahydro-2H-pyran-4-yl)-7H-pyrrolo[2,3-d]pyrimidine-2,4-diamine] yielded an IC50 of less than 0.01 µM.

`COc1cc(S(=O)(=O)N2CCC(N3CCOCC3)CC2)ccc1Nc1nc(N[C@H]2CCOC2)c2c(Cl)c[nH]c2n1` [Compound 61, (S)-5-chloro-N2-(2-methoxy-4-((4-morpholinopiperidin-1-yl)sulfonyl)phenyl)-N4-(tetrahydrofuran-3-yl)-7H-pyrrolo[2,3-d]pyrimidine-2,4-diamine] showed an IC50 (LRRK2, ADP-Glo) of less than 0.01 µM.
